Values after ≈ are worked out from the molar mass of the structure shown. Read-outs that look alike come from different tables or passages of the source.
What was measured:
[1] = test system: C. parapsilosis ATCC 22019; experiment: micro-dilution broth MIC; type: cell-based, Candida parapsilosis
Method: (§1) The cytotoxic effect of the compounds was evaluated using glioblastoma (T98G), neuroblastoma (SK-N-AS) and lung adenocarcinoma (A549) cell lines and human normal skin fibroblasts (CCD-1059Sk). T98G and SK-N-AS cells were cultured in DMEM, high glucose; A549 cells were cultured in DMEM/F12; and CCD-1059Sk cells were cultured in MEM. All media were supplemented with 10% FBS, 100 U/mL of penicillin and […] of streptomycin (PenStrep). Cells were incubated at 37 °C in a humidified atmosphere of 5% CO2. Stock solutions were prepared by dissolving the compounds in sterile dimethyl sulfoxide (DMSO) to obtain the concentration of 50 mg/mL. The cells were seeded into 96-well sterile plates (Nunc) at a density of 1 × 10^5 cells/mL. After 24 h of incubation, the medium was removed from each well, and then cells were incubated for the next 24 h with different concentrations of the tested compounds (1–100 µg/mL) in respective medium containing 2% FBS. Cytotoxicity of the compounds was evaluated using the MTT assay, which is based on the conversion of 3-(4,5-dimethylthiazol-2-yl)-2,5-diphenyltetrazolium bromide (MTT) into dark-blue formazan crystals. Briefly, after 24 h incubation of cells with varying concentrations of the tested compounds, all culture media were removed from the plates. Cells were washed with PBS, and then 100 µL of medium containing 10% MTT solution (5 mg/mL) was added to each well. After 3 h incubation, 100 µL (per well) of 10% SDS buffer solution was added to solubilize formazan crystals. After overnight incubation, the absorbance was measured at 570 nm using a microplate reader (Epoch, BioTek Instruments). Experiments were repeated twice, and the measurements in each experiment were run in triplicate. The viability of the investigated cells was expressed as a percentage of the viability of the untreated cells, and the results were transformed into IC50 values (expressed as mean ± SD). […] The complexes were screened for antibacterial and antifungal activities by micro-dilution broth method using Mueller–Hinton broth for growth of bacteria or Mueller–Hinton broth with 2% glucose for growth of fungi. Minimal inhibitory concentrations (MICs) of the tested derivatives were evaluated for the panel of the reference microorganisms from the American Type Culture Collection (ATCC), including Gram-negative bacteria (Escherichia coli ATCC 25922, Salmonella Typhimurium ATCC14028, Klebsiella pneumoniae ATCC 13883, Pseudomonas aeruginosa ATCC 9027, Proteus mirabilis ATCC 12453), Gram-positive bacteria (Staphylococcus aureus ATCC 25923, Staphylococcus epidermidis ATCC 12228, Micrococcus luteus ATCC 10240, Enterococcus faecalis ATCC 29212, Bacillus subtilis ATCC 6633, Bacillus cereus ATCC 10876) and fungi (Candida albicans ATCC 10231, Candida parapsilosis ATCC 22019, C. glabrata ATCC 90030).

[2] = test system: C. albicans ATCC 102231; experiment: micro-dilution broth MIC; type: cell-based, Candida albicans
Method: as §1

[3] = test system: C. glabrata ATCC 2091; experiment: micro-dilution broth MIC; type: cell-based
[4] = test system: B. subtilis ATCC 6633; experiment: micro-dilution broth MIC; type: cell-based, Bacillus subtilis
Method: as §1

[5] = test system: lung adenocarcinoma (A549) cell line; experiment: MTT cytotoxicity assay, A549; type: cell-based, human; details: MTT assay after 24 h incubation; for IC50: Homo sapiens, A549, read-out: IC50 ± SD, A549
Method: as §1

[6] = test system: K. pneumoniae ATCC 13883; experiment: micro-dilution broth MIC; type: cell-based, Klebsiella pneumoniae
Method: as §1

[7] = test system: glioblastoma (T98G) cell line; experiment: MTT cytotoxicity assay, T98G; type: cell-based; details: MTT assay after 24 h incubation; for IC50: Homo sapiens, T98G, read-out: IC50 ± SD, T98G
Method: as §1

[8] = test system: E. coli ATCC 25922; experiment: micro-dilution broth MIC; type: cell-based, Escherichia coli
Method: as §1

[9] = test system: S. typhimurium ATCC 14028; experiment: micro-dilution broth MIC; type: cell-based, Salmonella Typhimurium; details: Gram-negative
Method: as §1

[10] = test system: B. cereus ATCC 10876; experiment: micro-dilution broth MIC; type: cell-based, Bacillus cereus
Method: as §1

[11] = test system: M. luteus ATCC 10240; experiment: micro-dilution broth MIC; type: cell-based, Micrococcus luteus
Method: as §1

[12] = test system: S. epidermidis ATCC 12228; experiment: micro-dilution broth MIC; type: cell-based, Staphylococcus epidermidis
Method: as §1

[13] = test system: P. mirabilis ATCC 12453; experiment: micro-dilution broth MIC; type: cell-based, Proteus mirabilis
Method: as §1

[14] = test system: human normal skin fibroblasts (CCD-1059Sk); experiment: MTT cytotoxicity assay, normal fibroblasts; type: cell-based; details: MTT assay after 24 h incubation, normal cells; for IC50: Homo sapiens, CCD-1059Sk, read-out: IC50 ± SD, CCD-1059-Sk
Method: as §1

[15] = test system: E. faecalis ATCC 29212; experiment: micro-dilution broth MIC; type: cell-based, Enterococcus faecalis
Method: as §1

[16] = test system: S. aureus ATCC 25923; experiment: micro-dilution broth MIC; type: cell-based, Staphylococcus aureus
Method: as §1

[17] = test system: neuroblastoma (SK-N-AS) cell line; experiment: MTT cytotoxicity assay, SK-N-AS; type: cell-based, human; details: MTT assay after 24 h incubation; for IC50: Homo sapiens, SK-N-AS, read-out: IC50 ± SD, SK-N-AS
Method: as §1

[18] = test system: P. aeruginosa ATCC 9027; experiment: micro-dilution broth MIC; type: cell-based, Pseudomonas aeruginosa
Method: as §1

[19] = test system: lung adenocarcinoma (A549) cell line; parameters: method as in earlier work; details: incubated for 24 h with A549 cells; ref 77 (Zhang F. et al.); cited from earlier work
[20] = Bacillus subtilis, ATCC6633, B. subtilis ATCC 6633, Gram-positive, read-out: MIC
[21] = Klebsiella pneumoniae, ATCC13883, Gram-negative, read-out: MIC
[22] = Lodderomyces parapsilosis, ATCC22019, yeast, read-out: MIC
[23] = Escherichia coli, ATCC25922, Gram-negative, read-out: MIC
[24] = Salmonella enterica, read-out: MIC
[25] = Candida albicans, ATCC102231, yeast, read-out: MIC
[26] = Bacillus cereus, ATCC10876, B. cereus ATCC 10876, Gram-positive, read-out: MIC
[27] = Micrococcus luteus, ATCC10240, M. luteus ATCC 10240, Gram-positive, read-out: MIC
[28] = Staphylococcus epidermidis, ATCC12228, S. epidermidis ATCC 12228, Gram-positive, read-out: MIC
[29] = Proteus mirabilis, ATCC12453, Gram-negative, read-out: MIC
[30] = Enterococcus faecalis, ATCC29212, E. faecalis ATCC 29212, Gram-positive, read-out: MIC
[31] = Staphylococcus aureus, ATCC25923, S. aureus ATCC 25923, Gram-positive, read-out: MIC
[32] = Nakaseomyces glabratus, ATCC2091, yeast, read-out: MIC
[33] = Pseudomonas aeruginosa, ATCC9027, Gram-negative, read-out: MIC
[34] = B. subtilis ATCC 6633, Gram-positive
[35] = B. cereus ATCC 10876, Gram-positive
[36] = M. luteus ATCC 10240, Gram-positive
[37] = S. epidermidis ATCC 12228, Gram-positive
[38] = E. faecalis ATCC 29212, Gram-positive
[39] = S. aureus ATCC 25923, Gram-positive

Structure (SMILES)	MIC ([1]; yeast) [µg/mL]	MIC ([2]; yeast) [µg/mL]	MIC ([3]; yeast) [µg/mL]	MIC [4, 20] [µg/mL]	IC50 [5] [µg/mL]	MIC [6, 21] [µg/mL]	IC50 [7] [µg/mL]	MIC [1, 22] [µg/mL]	MIC [8, 23] [µg/mL]	MIC [9, 24] [µg/mL]	MIC [2, 25] [µg/mL]	MIC [10, 26] [µg/mL]	MIC [11, 27] [µg/mL]	MIC [12, 28] [µg/mL]	MIC [13, 29] [µg/mL]	IC50 [14] [µg/mL]	MIC [15, 30] [µg/mL]	MIC [16, 31] [µg/mL]	IC50 [17] [µg/mL]	MIC [18, 33] [µg/mL]	also measured
C[C@@H]1[C@H](O)[C@@H](C)/C=C/C=C/CC/C=C/C=C/C=C/C=C/C(O[C@H]2O[C@H](C)[C@@H](O)[C@H](N)[C@@H]2O)CC2O[C@](O)(CC(O)C(O)CCC(O)CC(O)CC(O)CC(=O)O[C@H]1C)CC(O)C2C(=O)O (stereo partly shown) [Nys, nystatin, reference compound]	0.24 (≈ 0.259 µM)	0.24 (≈ 0.259 µM)	0.48 (≈ 0.518 µM)																		
c1cnc2[nH]c(-c3ccncc3)nc2c1 [Complex L2]				500	43.1 ± 2.17	> 1000	35 ± 1.44	> 1000	1000	1000	1000	250	250	1000	1000	> 100	1000	1000	81.3 ± 3.31	> 1000	MIC [3, 32]: > 1000 µg/mL
[Cl][Zn-2]1([Cl])[n+]2cccc(c2)-c2nc3c(ccc[n+]3[Zn-2]([Cl])([Cl])[n+]3cccc(c3)-c3nc4c(ccc[n+]41)[nH]3)[nH]2 [Complex C3]	>1000	>1000	>1000																		MIC [4, 34]: >1000 µg/mL; IC50 ± SD, A549 [5]: 41.34 ± 2.17 µg/mL; MIC ([6]; Gram-negative): >1000 µg/mL; IC50 ± SD, T98G [7]: 46.54 ± 1.86 µg/mL; MIC ([8]; Gram-negative): >1000 µg/mL; MIC [9]: >1000 µg/mL; MIC [10, 35]: >1000 µg/mL; MIC [11, 36]: 500 µg/mL; MIC [12, 37]: 1000 µg/mL; MIC ([13]; Gram-negative): >1000 µg/mL; IC50 ± SD, CCD-1059-Sk [14]: 30.84 ± 1.11 µg/mL; MIC [15, 38]: >1000 µg/mL; MIC [16, 39]: 1000 µg/mL; IC50 ± SD, SK-N-AS [17]: 41.60 ± 1.93 µg/mL; MIC ([18]; Gram-negative): >1000 µg/mL
Brc1cnc2[nH]c(-c3cccnc3)nc2c1 [Complex L4]				1000	> 100	> 1000	> 100	1000	> 1000	> 1000	500	1000	> 1000	1000	> 1000	> 100	1000	> 1000	> 100	> 1000	MIC [3, 32]: > 1000 µg/mL
CN[C@H](CC(C)C)C(=O)N[C@H]1C(=O)N[C@@H](CC(N)=O)C(=O)N[C@H]2C(=O)N[C@H]3C(=O)N[C@H](C(=O)N[C@H](C(=O)O)c4cc(O)cc(O)c4-c4cc3ccc4O)[C@H](O)c3ccc(c(Cl)c3)Oc3cc2cc(c3O[C@@H]2O[C@H](CO)[C@@H](O)[C@H](O)[C@H]2O[C@H]2C[C@](C)(N)[C@H](O)[C@H](C)O2)Oc2ccc(cc2Cl)[C@H]1O [Van, Vancomycin, reference compound]																					MIC ([4]; Bacillus subtilis, ATCC6633): 0.24 µg/mL (≈ 0.166 µM); MIC ([10]; Bacillus cereus, ATCC10876): 0.98 µg/mL (≈ 0.676 µM); MIC ([11]; Micrococcus luteus, ATCC10240): 0.12 µg/mL (≈ 0.0828 µM); MIC ([12]; Staphylococcus epidermidis, ATCC12228): 0.98 µg/mL (≈ 0.676 µM); MIC ([15]; Enterococcus faecalis, ATCC29212): 1.95 µg/mL (≈ 1.35 µM); MIC ([16]; Staphylococcus aureus, ATCC25923): 0.98 µg/mL (≈ 0.676 µM)
[Cl][Zn][Cl].[Cl][Zn][Cl].c1cnc2[nH]c(-c3ccncc3)nc2c1.c1cnc2[nH]c(-c3ccncc3)nc2c1 [Complex C2]	>1000	1000	>1000																		MIC [4, 34]: 500 µg/mL; IC50 ± SD, A549 [5]: 34.44 ± 0.75 µg/mL; MIC ([6]; Gram-negative): 1000 µg/mL; IC50 ± SD, T98G [7]: 24.29 ± 0.11 µg/mL; MIC ([8]; Gram-negative): 1000 µg/mL; MIC [9]: 1000 µg/mL; MIC [10, 35]: 500 µg/mL; MIC [11, 36]: 250 µg/mL; MIC [12, 37]: 500 µg/mL; MIC ([13]; Gram-negative): 1000 µg/mL; IC50 ± SD, CCD-1059-Sk [14]: 27.27 ± 1.05 µg/mL; MIC [15, 38]: 1000 µg/mL; MIC [16, 39]: 500 µg/mL; IC50 ± SD, SK-N-AS [17]: 33.72 ± 0.39 µg/mL; MIC ([18]; Gram-negative): >1000 µg/mL
O=C(O)c1cn(C2CC2)c2cc(N3CCNCC3)c(F)cc2c1=O [Cip, ciprofloxacin, reference compound]						0.12 (≈ 0.362 µM)			0.015 (≈ 0.0453 µM)	0.061 (≈ 0.184 µM)					0.03 (≈ 0.0905 µM)					0.49 (≈ 1.48 µM)	
COc1cc([C@@H]2c3cc4c(cc3[C@@H](O[C@@H]3O[C@@H]5CO[C@@H](C)O[C@H]5[C@H](O)[C@H]3O)[C@H]3COC(=O)[C@H]23)OCO4)cc(OC)c1O [Etoposide, reference compound]					> 100		> 100									> 100			67.8 ± 2.03 (≈ 115 µM)		median inhibitory concentration (IC50), A549 [19]: 115 µg/mL
c1cc(-c2nc3ccncc3[nH]2)ccn1 [Complex L1]				> 1000	> 100	> 1000	41.2 ± 2.3	> 1000	> 1000	> 1000	> 1000	> 1000	500	> 1000	> 1000	> 100	> 1000	> 1000	> 100	> 1000	MIC [3, 32]: > 1000 µg/mL

— PMC9224258, “Zinc Coordination Compounds with Benzimidazole Derivatives: Synthesis, Structure, Antimicrobial Activity and Potential Anticancer Application” (International Journal of Molecular Sciences, 2022)
